IC50 data for one compound are collected here from publication PMC8291035 (Biochemical pharmacology, 2021).

The structures appear in SMILES notation.

In this experiment the target is ABCB1 (P-glycoprotein, P-gp, MDR1) (Homo sapiens, UniProt P08183). Put plainly: cell-based.
Sequence of ABCB1 (P-glycoprotein, P-gp, MDR1) (P08183 whole entry): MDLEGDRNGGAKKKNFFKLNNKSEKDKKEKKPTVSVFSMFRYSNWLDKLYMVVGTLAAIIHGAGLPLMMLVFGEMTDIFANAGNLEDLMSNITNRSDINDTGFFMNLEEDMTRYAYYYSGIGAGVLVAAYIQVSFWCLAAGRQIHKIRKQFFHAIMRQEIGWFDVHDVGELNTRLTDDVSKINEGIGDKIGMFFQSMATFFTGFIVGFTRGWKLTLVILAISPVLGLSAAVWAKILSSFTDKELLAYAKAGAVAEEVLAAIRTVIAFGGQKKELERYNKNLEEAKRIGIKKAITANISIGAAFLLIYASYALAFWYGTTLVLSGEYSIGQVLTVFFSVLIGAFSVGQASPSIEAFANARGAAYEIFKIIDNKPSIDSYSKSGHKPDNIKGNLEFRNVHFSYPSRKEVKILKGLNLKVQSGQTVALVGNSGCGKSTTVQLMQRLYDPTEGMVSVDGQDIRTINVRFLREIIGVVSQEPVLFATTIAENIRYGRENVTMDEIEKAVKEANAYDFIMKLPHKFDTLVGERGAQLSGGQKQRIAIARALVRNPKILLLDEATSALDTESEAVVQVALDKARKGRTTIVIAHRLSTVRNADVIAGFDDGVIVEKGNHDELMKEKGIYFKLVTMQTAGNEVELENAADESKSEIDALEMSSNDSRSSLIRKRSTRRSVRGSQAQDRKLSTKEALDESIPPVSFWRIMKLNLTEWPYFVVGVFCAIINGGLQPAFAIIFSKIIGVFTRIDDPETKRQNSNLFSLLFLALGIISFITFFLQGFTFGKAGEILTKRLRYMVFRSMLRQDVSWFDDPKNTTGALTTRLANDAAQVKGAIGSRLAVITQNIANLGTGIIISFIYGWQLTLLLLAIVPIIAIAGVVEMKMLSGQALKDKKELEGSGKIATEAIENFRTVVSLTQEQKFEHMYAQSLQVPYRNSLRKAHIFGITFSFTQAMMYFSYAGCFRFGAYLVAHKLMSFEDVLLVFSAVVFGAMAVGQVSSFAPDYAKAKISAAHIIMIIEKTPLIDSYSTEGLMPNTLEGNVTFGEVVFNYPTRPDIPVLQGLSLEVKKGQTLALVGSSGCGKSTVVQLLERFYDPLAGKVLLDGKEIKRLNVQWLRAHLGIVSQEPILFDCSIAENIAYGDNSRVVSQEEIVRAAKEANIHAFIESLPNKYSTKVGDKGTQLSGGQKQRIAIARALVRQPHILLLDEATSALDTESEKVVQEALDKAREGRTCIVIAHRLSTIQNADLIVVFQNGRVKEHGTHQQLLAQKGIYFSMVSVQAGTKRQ

For orientation: IC50 means the point on the concentration scale where inhibition reaches its midpoint. A lower IC50 goes with greater potency. Consider `C=CC(=O)Nc1cc(Nc2nccc(-c3cn(C4CC4)c4ccccc34)n2)c(OC)cc1N(C)CCN(C)C` [almonertinib], for which the IC50 is ~2 µM.
